The test system of one series is Daphnia magna. As to conditions: chronic/long-term; duration: 21 days; reproduction.
The test system of a further series is Aphidius rhopalosiphi. The note with it: acute; duration: 7 days; mortality.
The next series has as its system Pimephales promelas. As to conditions: chronic/long-term; duration: 35 days; growth.
A further series deals with Bibionidae. The note with it: chronic/long-term, duration: 28 days.
A further series deals with Oncorhynchus mykiss. The note with it: acute; duration: 96 hours; mortality.
For another series, the system named is Apis mellifera. As to conditions: acute, mortality.
Another series has as its system Tagia sp. The note with it: acute; duration: 14 days; mortality.

As a reminder, the LOAEL is the lowest tested level that showed an adverse finding. In general, NOAEL refers to the highest dose or exposure tested at which no adverse effect was seen.

In brackets after ≈: the same amount, converted by molar mass. Bounds are passed on as bounds.

For `CCCN(CCC)c1c([N+](=O)[O-])cc(C(F)(F)F)cc1[N+](=O)[O-]` [Trifluralin], the NOEC with Daphnia magna was determined as 0.0507 mg/L; in the series on Pimephales promelas, 0.0003 mg/L; in the series on Bibionidae (development), 0.25 mg/L; in the series on Bibionidae (mortality), 810 mg/kg; in the series with Colinus virginianus (reproduction developmental), 103 mg/kg-day. The LD50 was above 5000 mg/kg in the series with Rattus norvegicus (acute, oral, mortality); above 100 µg/piece with Apis mellifera (duration: 48 hours, dermal); above 80 µg/piece in the series with Apis mellifera (oral, unspecified); above 2250 mg/kg in the series with Colinus virginianus (acute, oral, mortality). Besides, the LOAEL in the series on Rattus norvegicus (chronic, duration: 2 years, Fischer 344, histopathology: neoplastic) is 30 mg/kg-day. For the same compound, the NOAEL in the series with Rattus norvegicus (reproduction developmental, reproduction) was determined as 148 mg/kg-day; in the series with Rattus norvegicus (subchronic, duration: 90 days, oral), 2.6 mg/kg-day. Also, the LEL with Aphidius rhopalosiphi turned out to be 1200 g/ha. In addition, the LC50 was 0.088 µg/mL (≈ 0.262 µM) with Oncorhynchus mykiss; above 1000 mg/kg with Tagia sp.; 574 mg/kg-day with Colinus virginianus (acute, oral, diet, mortality).
